Literature values as cited in EP0266968A2, “Gelled ointment of vasodilating agent” (Cohen, Gérard G., priority 1986, dated 1988).

System: penile arteries

COc1ccc(Cc2nccc3cc(OC)c(OC)cc23)cc1OC [papaverine]
erections in the organic group (29 organic impotent males, intracavernous injection): delayed, weaker and shorter erections
duration of penile erections (40 to 160 mg injected intracavernously): approximately 2 hours
patients whose erections improved significantly (63 patients with angiogenic impotence, repeated intracavernous injections completed by infusion of heparinized saline, mean follow up of one year): 66%
haemodynamic and radiologic studies (done concomitantly with intracavernous injection): strong vasodilation in the penile arteries (even when pathologic) and diminished outflow from the cavernous bodies
